The test system of series [1] is rabbit's corpus cavernosum. As to the kind of experiment: Relaxing effect in isolated rabbit's corpus cavernosum strips pre-contracted with phenylephrine (isometric tension). Further details: species or system New Zealand White rabbits. The note with it: for tissue relaxation of phenylephrine-contracted corpus cavernosum: 1 μM compound, contraction induced by 1 μM phenylephrine (PE), FIGS. 8-10; for percentage of relaxation in rabbit's corpus cavernosum: FIGS. 12 and 13. The protocol: For this study, New Zealand White rabbits (2 to 3.5 kg) were used to obtain penile tissue which was excised and transferred to a chilled Krebs solution. For this study, we used cavernosum strips (CC) of the penile tissue of New Zealand White rabbits. The strips were mounted in 10 ml tissue incubation chambers containing Krebs solution at 37° C., pH occurring between 7.3 and 7.5; continuously bubbled with a mixture of 95% oxygen (O2) and 5% carbon dioxide (CO2). An initial tension of 10 mN were applied on the tissues, followed by a 60 minute stabilization period. Changes in tension (isometric force) were obtained using isometric transducers (ADInstruments, Australia) and recorded in a data acquisition system PowerLab 4/30 (Chart Software, version 7.3.7, ADInstruments, MA, USA for BL-230 and version 7.0 ADInstruments, MA for the BL-236). […] Cumulative curve responses to the concentration of BL-230 compounds and tadalafil (0.001 to 10 μM) were obtained in the pre-contracted rabbit corpus cavernosum strips with 1 μM PE.

Series [2] addresses T1, PDE2A1 (Homo sapiens, UniProt O00408).
T1 construct: host or cells: Sf9
As to the kind of experiment: PDE2A1 enzyme inhibition (HTRF, cAMP substrate). The note with it: human recombinant enzyme (Sf9); FIGS. 14 and 15; test concentration not given. The class given is biochemical. The source says:
(§1) The effects of the BL-230 and BL-236 compounds on the activity of the human enzymes PDE2A1, PDE3A, PDE4A1A, PDE4B1, PDE7A, PDE8A1, and PDE10A2 and PDE11A4 were quantified by measuring the production of adenosine 5′-monophosphate (5′AMP) from cyclic adenosine monophosphate (cAMP), with human recombinant enzyme expressed in Sf9 cells and the detection method was by using HTRF®.
(§2) The test compound, the reference compound or water (control) were mixed with the enzyme (the enzymes and their amounts used are described in Table 1) in a buffer containing 44.4 mM Tris-HCl, 5.28 mM MgCl2, 2.64 mM DTT and 0.044% Tween® 20 (pH 7.8). Then, the reaction was initiated by the addition of 40 nM of cAMP substrate and the mixture was incubated for 30 minutes at room temperature. For basal control measurements, the enzyme was omitted from the reaction mixture. The fluorescence acceptor (Dye2 labeled cAMP) and fluorescence donor (anti-cAMP antibody labeled with europium cryptate) were added in the presence of 1 mM IBMX. After 60 minutes, the fluorescence corresponding to the amount of transfer residual cAMP was measured at λex=337 nm, λem=620 nm and λem=665 nm using a microplate reader (RubyStar, BMG). The enzyme activity was determined by the signal division measured at 665 nm, by the measured signal at 620 nm (right). The results were expressed as a inhibition percentage of the control enzyme activity. […]
On the technique in general: TR-FRET usually uses a lanthanide donor and a delayed reading to cut background.

For series [3], the target named is T2, PDE4B1 (Homo sapiens, UniProt Q07343).
T2 construct: host or cells: Sf9
Briefly: PDE4B1 enzyme inhibition (HTRF, cAMP substrate). The class given is biochemical. To be noted: human recombinant enzyme (Sf9); FIGS. 14 and 15; test concentration not given.
From the text: as §1, §2

Series [4] deals with T3, PDE7A (Homo sapiens, UniProt Q13946).
T3 construct: host or cells: Sf9
Briefly: PDE7A enzyme inhibition (HTRF, cAMP substrate). The class given is biochemical. The note with it: human recombinant enzyme (Sf9); FIGS. 14 and 15; test concentration not given.
From the text: as §1, §2

Series [5] has as its target T4, PDE8A1 (Homo sapiens, UniProt O60658).
T4 construct: host or cells: Sf9
As to the kind of experiment: PDE8A1 enzyme inhibition (HTRF, cAMP substrate). The class given is biochemical. The note with it: human recombinant enzyme (Sf9); FIGS. 14 and 15; test concentration not given.
From the text: as §1, §2

In series [6] the target is T5, PDE3B (Homo sapiens, UniProt Q13370).
T5 construct: host or cells: Sf9
Briefly: PDE3B enzyme inhibition (HTRF, cAMP substrate). The class given is biochemical. The note with it: human recombinant enzyme (Sf9); FIGS. 14 and 15; test concentration not given. On the procedure:
The effects of compounds BL-230 and BL-236 on human PDE3B enzyme activity was quantified by measuring the production of 5′AMP from CAMP using human recombinant enzyme expressed in Sf9 cells and the detection method was by using HTRF®.
The test compound, the reference compound or water (control) were mixed with 0.7 U of the enzyme PDE3B in a buffer containing 50 mM Tris-HCl, 6 mM MgCl2, 3 mM DTT and 0.05% Tween® 20 (pH 7.8). Then, the reaction was initiated by addition of 40 nM of cAMP substrate and the mixture was incubated for 30 minutes at 22° C. For basal control measurements, the enzyme was omitted from the reaction mixture. The fluorescence acceptor (Dye2 labeled cAMP) and fluorescence donor (anti-cAMP antibody labeled with europium cryptate) were added in the presence of 1 mM IBMX. After 60 minutes, the transfer of fluorescence corresponding to the amount of residual cAMP was measured at λex=337 nm, λem=620 nm and λem=665 nm using a microplate reader (RubyStar, BMG). The enzyme activity was determined by the signal division measured at 665 nm, by the signal measured at 620 nm (right). The results were expressed as an inhibition percentage of the control enzyme activity. The standard inhibitory reference compound milrinone was used, which was tested in each experiment at several concentrations to obtain an inhibition curve from which its IC50 value was calculated. […]

Where [7] appears, read: strips pre-contracted with 1 μM PE.

By melting point is commonly meant the temperature of the solid-liquid transition.

T1 sequence (O00408 1-920 isoform O00408-2): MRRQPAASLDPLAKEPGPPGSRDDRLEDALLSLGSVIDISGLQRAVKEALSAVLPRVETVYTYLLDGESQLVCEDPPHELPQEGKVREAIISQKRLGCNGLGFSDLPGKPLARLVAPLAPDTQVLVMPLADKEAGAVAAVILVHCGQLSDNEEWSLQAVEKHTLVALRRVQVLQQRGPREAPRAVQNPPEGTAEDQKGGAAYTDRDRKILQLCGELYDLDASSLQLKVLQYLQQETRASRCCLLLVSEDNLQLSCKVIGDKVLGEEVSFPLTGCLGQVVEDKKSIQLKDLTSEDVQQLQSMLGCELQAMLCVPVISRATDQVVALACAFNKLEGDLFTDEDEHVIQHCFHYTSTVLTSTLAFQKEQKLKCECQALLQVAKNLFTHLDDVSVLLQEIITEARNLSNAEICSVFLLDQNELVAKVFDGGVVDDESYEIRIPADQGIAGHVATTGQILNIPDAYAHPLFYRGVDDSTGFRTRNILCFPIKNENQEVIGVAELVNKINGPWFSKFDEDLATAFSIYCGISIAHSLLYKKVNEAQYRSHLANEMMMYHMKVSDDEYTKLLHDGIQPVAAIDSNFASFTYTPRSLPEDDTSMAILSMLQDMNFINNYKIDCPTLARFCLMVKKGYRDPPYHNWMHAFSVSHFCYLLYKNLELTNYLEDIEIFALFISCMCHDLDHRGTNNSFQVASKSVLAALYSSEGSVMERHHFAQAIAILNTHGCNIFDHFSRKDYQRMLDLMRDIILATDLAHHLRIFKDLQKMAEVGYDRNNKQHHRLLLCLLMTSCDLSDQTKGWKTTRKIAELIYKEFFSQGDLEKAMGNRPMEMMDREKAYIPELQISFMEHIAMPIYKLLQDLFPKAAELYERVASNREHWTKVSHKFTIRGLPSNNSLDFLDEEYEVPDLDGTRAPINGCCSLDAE
T3 sequence (Q13946 whole entry): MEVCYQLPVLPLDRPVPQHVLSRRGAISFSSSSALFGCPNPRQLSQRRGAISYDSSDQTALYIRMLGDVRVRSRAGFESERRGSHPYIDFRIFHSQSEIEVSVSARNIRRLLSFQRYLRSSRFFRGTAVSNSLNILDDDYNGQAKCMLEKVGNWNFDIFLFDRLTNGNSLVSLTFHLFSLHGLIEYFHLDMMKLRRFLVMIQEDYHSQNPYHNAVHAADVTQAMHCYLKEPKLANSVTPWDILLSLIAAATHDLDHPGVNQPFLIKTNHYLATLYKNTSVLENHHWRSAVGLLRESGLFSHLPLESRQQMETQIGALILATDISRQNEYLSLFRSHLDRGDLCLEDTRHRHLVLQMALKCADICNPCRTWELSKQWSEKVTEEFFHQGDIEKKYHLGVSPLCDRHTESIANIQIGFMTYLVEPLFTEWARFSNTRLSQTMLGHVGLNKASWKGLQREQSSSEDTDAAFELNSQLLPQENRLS
T4 sequence (O60658 whole entry): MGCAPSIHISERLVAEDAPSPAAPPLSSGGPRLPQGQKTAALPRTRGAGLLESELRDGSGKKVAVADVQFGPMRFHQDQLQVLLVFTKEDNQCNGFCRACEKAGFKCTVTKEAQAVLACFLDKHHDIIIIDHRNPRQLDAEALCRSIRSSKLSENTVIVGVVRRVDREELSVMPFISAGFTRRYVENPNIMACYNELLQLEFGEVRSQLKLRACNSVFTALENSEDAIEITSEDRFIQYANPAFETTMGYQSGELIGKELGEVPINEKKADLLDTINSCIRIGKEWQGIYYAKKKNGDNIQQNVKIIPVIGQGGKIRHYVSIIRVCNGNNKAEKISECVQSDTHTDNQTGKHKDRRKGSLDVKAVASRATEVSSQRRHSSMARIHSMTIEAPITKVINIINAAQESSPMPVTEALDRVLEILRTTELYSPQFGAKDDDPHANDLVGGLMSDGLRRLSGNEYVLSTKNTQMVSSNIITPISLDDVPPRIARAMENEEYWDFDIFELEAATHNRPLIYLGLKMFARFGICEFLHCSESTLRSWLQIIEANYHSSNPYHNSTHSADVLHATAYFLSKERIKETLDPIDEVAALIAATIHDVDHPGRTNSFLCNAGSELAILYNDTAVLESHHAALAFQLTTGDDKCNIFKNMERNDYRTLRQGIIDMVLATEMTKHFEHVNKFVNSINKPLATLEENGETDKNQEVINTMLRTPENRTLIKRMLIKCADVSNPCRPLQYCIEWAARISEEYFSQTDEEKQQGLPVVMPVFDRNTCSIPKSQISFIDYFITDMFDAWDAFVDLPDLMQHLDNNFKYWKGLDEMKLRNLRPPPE
T2 sequence (Q07343 whole entry): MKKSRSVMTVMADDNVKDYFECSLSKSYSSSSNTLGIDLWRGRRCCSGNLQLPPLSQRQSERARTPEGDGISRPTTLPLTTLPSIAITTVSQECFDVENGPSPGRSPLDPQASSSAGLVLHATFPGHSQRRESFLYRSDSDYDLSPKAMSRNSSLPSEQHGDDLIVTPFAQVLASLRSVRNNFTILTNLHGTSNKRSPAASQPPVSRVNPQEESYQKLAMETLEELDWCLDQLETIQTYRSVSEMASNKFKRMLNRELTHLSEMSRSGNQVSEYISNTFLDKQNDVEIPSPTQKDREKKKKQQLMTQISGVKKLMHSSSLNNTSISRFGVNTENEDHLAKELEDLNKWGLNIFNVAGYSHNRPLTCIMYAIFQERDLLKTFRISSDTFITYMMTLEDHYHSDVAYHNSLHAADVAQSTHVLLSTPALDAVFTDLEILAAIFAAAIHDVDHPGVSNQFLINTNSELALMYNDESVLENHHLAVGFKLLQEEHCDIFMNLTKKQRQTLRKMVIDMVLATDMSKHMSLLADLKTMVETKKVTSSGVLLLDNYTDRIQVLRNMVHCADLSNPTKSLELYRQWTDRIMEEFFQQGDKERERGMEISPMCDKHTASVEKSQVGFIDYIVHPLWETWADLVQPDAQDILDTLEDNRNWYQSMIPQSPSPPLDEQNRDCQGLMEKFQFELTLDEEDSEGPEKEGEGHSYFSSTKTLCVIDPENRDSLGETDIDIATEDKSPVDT
T5 sequence (Q13370 whole entry): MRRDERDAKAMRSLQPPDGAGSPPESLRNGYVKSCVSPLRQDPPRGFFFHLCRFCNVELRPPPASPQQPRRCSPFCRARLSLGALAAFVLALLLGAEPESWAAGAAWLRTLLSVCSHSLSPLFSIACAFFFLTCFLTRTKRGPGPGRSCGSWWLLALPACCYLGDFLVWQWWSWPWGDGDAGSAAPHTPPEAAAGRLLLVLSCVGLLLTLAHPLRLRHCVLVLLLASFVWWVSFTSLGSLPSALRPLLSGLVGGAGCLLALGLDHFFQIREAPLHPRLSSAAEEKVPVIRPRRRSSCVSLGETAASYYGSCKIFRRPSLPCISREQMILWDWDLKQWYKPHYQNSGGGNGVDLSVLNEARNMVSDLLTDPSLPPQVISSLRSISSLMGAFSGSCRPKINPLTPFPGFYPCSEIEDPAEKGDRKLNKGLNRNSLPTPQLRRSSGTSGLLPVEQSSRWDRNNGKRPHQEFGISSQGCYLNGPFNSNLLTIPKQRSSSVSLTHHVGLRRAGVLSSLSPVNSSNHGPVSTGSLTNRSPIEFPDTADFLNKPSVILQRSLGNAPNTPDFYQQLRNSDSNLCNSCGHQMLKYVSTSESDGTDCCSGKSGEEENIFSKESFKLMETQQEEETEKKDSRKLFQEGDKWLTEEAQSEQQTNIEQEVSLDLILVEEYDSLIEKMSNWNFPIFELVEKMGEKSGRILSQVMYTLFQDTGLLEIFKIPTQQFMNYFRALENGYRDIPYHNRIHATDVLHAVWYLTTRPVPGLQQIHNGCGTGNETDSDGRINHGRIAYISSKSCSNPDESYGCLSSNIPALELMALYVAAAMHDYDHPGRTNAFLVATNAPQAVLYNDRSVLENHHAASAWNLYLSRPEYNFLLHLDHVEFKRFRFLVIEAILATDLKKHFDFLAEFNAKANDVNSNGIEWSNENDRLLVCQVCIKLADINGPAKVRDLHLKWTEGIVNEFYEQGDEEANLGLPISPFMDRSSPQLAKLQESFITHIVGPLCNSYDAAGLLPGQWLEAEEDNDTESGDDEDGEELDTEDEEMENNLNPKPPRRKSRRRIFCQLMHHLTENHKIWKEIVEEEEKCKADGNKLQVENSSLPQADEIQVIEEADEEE

`C[C@@H](CO)N1CC(=O)N2C(=C(c3c[nH]c4ccccc34)OC2c2ccc3c(c2)OCO3)C1=O` (stereo partly drawn) [BL-236, 3-(benzo[d][1,3]dioxol-5yl)-7-((S)1-hydroxypropan-2yl)-1-(1H-indol-3-yl)-6,7-dihydro-3H-oxazolo[3,4-a]pyrazine-5,8-dione] displayed a melting point of 235 to 239 °C. Besides, in series [1], the “tissue relaxation of phenylephrine-contracted corpus cavernosum” value is listed as “produced tissue relaxation shape similar to that of tadalafil”. Besides, in series [1] (setting [7]), the “percentage of relaxation in rabbit's corpus cavernosum” value was 93.05%. Further, the “inhibition of PDE2A1 enzyme activity” value in series [2] is given as “did not inhibit”. Further, in series [3], the “inhibition of PDE4B1 enzyme activity” value is given as “did not inhibit”. Moreover, the “inhibition of PDE7A enzyme activity” value in series [4] was “did not inhibit”. The “inhibition of PDE8A1 enzyme activity” value in series [5] was “did not inhibit”. The “inhibition of PDE3B enzyme activity” value in series [6] is recorded as “did not inhibit”.

`O=C1C2=C(c3c[nH]c4ccccc34)OC(c3ccc4c(c3)OCO4)N2C(=O)CN1CCO` (centres unmarked) [BL-230, 3-(benzo[d][1,3]dioxol-5yl)-7-(2-hydroxyethyl)-1-(1H-indol-3-yl)-6,7-dihydro-3H-oxazolo[3,4-a]pyrazine-5,8-dione] returned a melting point of 254 to 258 °C. For the same compound, in series [1], the “tissue relaxation of phenylephrine-contracted corpus cavernosum” value was “produced tissue relaxation shape similar to that of tadalafil”. In series [1] (0.001 to 10 μM, strips pre-contracted with 1 μM PE, FIG. 11), the cumulative concentration-response relaxation entry was “dose-dependent relaxation similar to that observed for tadalafil”. In addition, the “percentage of relaxation in rabbit's corpus cavernosum” value in series [1] (setting [7]) is on record as 78.47%. The “inhibition of PDE2A1 enzyme activity” value in series [2] was “did not inhibit”. Moreover, the “inhibition of PDE4B1 enzyme activity” value in series [3] is listed as “did not inhibit”. Besides, the “inhibition of PDE7A enzyme activity” value in series [4] was “did not inhibit”. Besides, the “inhibition of PDE8A1 enzyme activity” value in series [5] is listed as “did not inhibit”. Also, in series [6], the “inhibition of PDE3B enzyme activity” value is “did not inhibit”.

The values above are taken from patent US9359378B2, “Substituted oxazolo[3,4-a]pyrazines as pharmaceutcals” (BIOLAB SANUS FARMACÊUTICA LTDA., priority 2014, dated 2016).
